From patent US20250115581A1, “SUBSTITUTED PIPERIDINES AS CK1A DEGRADERS” (Monte Rosa Therapeutics, Inc., priority 2022, published 2025)

What was measured:
[1] = target: T1, CK1α (Homo sapiens, UniProt P48729+Q96SW2); assay: CK1α NanoBit Assay (HiBiT-tagged CSNK1A1 in HEK293 cells, luminescence); format: cell-based; conditions: 24 h
T1 construct: HEK293 clonal lines with CRISPR KI HiBiT tag on CSNK1A1; host or cells: HEK293 clonal line, CRISPR knock-in HiBiT at the CSNK1A1 locus, stably expressing LgBiT
T1 sequence (P48729 whole entry): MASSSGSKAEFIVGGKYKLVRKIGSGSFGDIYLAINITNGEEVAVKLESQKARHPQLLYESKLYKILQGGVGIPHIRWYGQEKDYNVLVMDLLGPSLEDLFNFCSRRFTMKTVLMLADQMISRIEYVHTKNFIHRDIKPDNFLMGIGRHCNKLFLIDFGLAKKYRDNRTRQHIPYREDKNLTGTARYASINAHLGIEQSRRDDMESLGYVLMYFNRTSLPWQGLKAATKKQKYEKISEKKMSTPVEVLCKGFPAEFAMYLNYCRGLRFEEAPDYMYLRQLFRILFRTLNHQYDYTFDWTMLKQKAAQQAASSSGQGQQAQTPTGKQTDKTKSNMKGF
T1 sequence (Q96SW2 whole entry): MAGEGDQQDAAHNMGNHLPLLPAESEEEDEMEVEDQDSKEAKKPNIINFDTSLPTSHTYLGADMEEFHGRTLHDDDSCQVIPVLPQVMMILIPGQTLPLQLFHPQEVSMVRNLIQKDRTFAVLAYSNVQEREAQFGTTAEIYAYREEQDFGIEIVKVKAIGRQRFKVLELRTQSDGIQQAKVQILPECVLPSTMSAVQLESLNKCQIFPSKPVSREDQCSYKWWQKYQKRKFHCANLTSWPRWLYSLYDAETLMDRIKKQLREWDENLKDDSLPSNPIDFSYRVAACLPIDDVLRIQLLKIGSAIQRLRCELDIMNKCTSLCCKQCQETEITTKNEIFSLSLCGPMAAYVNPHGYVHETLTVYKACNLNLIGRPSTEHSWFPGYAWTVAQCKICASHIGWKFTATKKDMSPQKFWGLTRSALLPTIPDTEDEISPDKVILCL
T1 sequence (Q16531 whole entry partner): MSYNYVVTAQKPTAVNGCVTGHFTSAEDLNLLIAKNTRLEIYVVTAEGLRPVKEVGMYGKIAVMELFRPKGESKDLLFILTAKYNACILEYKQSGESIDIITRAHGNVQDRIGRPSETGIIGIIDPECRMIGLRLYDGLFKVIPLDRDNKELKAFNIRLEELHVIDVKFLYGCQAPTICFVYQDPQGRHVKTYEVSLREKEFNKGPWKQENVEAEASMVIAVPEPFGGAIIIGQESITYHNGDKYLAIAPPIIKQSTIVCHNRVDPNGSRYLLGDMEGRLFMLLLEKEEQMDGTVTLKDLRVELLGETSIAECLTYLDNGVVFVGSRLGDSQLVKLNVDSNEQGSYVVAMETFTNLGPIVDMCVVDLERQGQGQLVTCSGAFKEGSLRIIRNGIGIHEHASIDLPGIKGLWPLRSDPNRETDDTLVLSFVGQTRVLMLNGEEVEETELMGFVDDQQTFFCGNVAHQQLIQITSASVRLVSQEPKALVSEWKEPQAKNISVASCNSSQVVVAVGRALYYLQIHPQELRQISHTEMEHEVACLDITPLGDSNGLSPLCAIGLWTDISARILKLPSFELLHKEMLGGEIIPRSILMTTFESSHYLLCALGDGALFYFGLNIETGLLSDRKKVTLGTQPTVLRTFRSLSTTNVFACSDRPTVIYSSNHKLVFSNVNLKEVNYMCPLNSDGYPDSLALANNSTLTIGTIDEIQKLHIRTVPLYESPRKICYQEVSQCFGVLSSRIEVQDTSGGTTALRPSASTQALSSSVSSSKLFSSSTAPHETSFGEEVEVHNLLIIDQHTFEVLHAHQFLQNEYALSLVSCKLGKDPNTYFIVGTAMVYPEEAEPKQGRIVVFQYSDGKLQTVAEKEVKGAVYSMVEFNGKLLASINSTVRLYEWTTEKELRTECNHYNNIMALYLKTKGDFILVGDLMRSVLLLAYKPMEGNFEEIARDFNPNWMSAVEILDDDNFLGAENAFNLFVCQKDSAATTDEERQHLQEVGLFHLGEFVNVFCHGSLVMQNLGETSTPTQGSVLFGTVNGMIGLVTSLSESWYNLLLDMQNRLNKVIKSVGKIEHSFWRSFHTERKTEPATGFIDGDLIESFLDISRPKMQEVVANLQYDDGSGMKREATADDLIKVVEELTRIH
In short: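 HEK293 with endogenous HiBiT-tagged CSNK1A1 and stable LgBiT, live-cell Endurazine substrate; compound added at 10 or 30 μM final top concentration after 16 h plating, then 24 h at 37 °C. Luminescence normalised to plate controls; DC50 by 3-parameter logistic fit, hill slope 1.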

[2] = target: CRBN/DDB1 (Homo sapiens, UniProt Q96SW2); assay: HTRF binding assay (displacement of Cy5-thalidomide probe from CRBN/DDB1); conditions: CRBN/DDB1 2.5 nM, Cy5-Thalidomide 100 nM, 30 min; geometric mean; read-out: HTRF_Thali_Disp_DR_geo_IC50
Chain of CRBN/DDB1 (Q96SW2 whole entry): as the sequence (Q96SW2 whole entry) above
Chain of CRBN/DDB1 (Q16531 whole entry partner): as the sequence (Q16531 whole entry partner) above
In short: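 HTRF displacement of Cy5-thalidomide probe (100 nM) from His-tagged CRBN/DDB1 (2.5 nM) with anti-His terbium cryptate, in HEPES/NaCl/TCEP/EDTA/Tween20 buffer; 10-point 1:3 series, 30 min at ambient temperature. 665/620 nm ratio fitted 4-parameter logistic for IC50; Ki via Cheng-Prusoff.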

[3] = tested on: SKCO1; assay: Growth inhibition, CyQUANT Direct Cell Proliferation Assay, SKCO1; format: cell-based; conditions: Homo sapiens, SK-CO-1; SKCO1 cells, 120 to 168 hours
Description: (§1) SKCO1, LS180, and LS174T cell lines were purchased from ATCC. CW2 cell line was purchased from Riken. GP2D cell line was purchased from Sigma/ECACC. All cell lines were cultured in manufacturer's recommended media at 37° C., 5% CO2. Briefly, cells were suspended in 200 μL of media and seeded at 300 to 1,800 cells per well in tissue culture treated 96-well plates with black walls and clear bottom. Plates were incubated overnight and initial (TO) read was performed the following day using CyQUANT Direct Cell Proliferation Assay Kit (Thermo Fisher Scientific) according to manufacturer's protocol. All compounds were solubilized in DMSO and prepared at 3-fold serial dilution, using 9 points starting at 30 μM as highest concentration, administered to cells and incubated for 120 to 168 hours, at which point CyQUANT assay measurement was performed using Acumen Cellista instrument (Ex/Em 480/520 nm). Media-only wells were used as blank, and 0.3% DMSO was used as DMSO-treated cell control. Growth inhibition (percent response) was calculated using the following formula in Excel: “=if ([Compound treated Day N]>[Untreated Day 0, AVG], ([Compound treated Day N]− [Untreated Day 0, AVG])/([Untreated Day N]−[Untreated Day 0, AVG])*100, ([Compound Treated Day N]−[Untreated Day 0, AVG])/([Untreated Day 0, AVG])*100)”. GI50 is the response corresponding to the 50% of untreated control.
(§2) GI50 data are reported in Tables 4a, 4b, 4c, 4d, and 4e for compounds in Table 1. In Tables 4a, 4b, 4c, 4d, and 4e below, According to the code, A represents a GI50 value of ≤0.1 μM, B represents a GI50 value >0.1 μM and ≤1 μM, C represents an GI50 value >1 μM.

[4] = tested on: CW2; assay: Growth inhibition, CyQUANT Direct Cell Proliferation Assay, CW2; format: cell-based; conditions: Homo sapiens, CW-2; CW2 cells, 120 to 168 hours
Description: as §1, §2

[5] = tested on: GP2D; assay: Growth inhibition, CyQUANT Direct Cell Proliferation Assay, GP2D; format: cell-based; conditions: GP2D cells, 120 to 168 hours
Description: as §1, §2

[6] = tested on: LS180; assay: Growth inhibition, CyQUANT Direct Cell Proliferation Assay, LS180; format: cell-based; conditions: Homo sapiens; LS180 cells, 120 to 168 hours
Description: as §1, §2

[7] = tested on: LS174T; assay: Growth inhibition, CyQUANT Direct Cell Proliferation Assay, LS174T; format: cell-based; conditions: Homo sapiens; LS174T cells, 120 to 168 hours
Description: as §1, §2

Row | Compound | DC50 [1] | IC50 [2] | GI50 [3] | GI50 [4] | GI50 [5] | GI50 [6] | GI50 [7]
1 | C[C@@H]1CN(c2ccc3c(c2)CN(C2CCC(=O)NC2=O)C3=O)C(=O)N1c1ccc(C2CC2)nc1 (stereo partly drawn) [Compound 137, 3-(5-((R)-3-(6-cyclopropylpyridin-3-yl)-4-methyl-2-oxoimidazolidin-1-yl)-1-oxoisoindolin-2-yl)piperidine-2,6-dione] | ≤ 0.1 µM | 100 to 1000 nM | 100 to 1000 nM | 100 to 1000 nM | > 1000 nM | > 1000 nM | 100 to 1000 nM
2 | Cc1ccc(N2CCN(c3ccc4c(c3)CN(C3CCC(=O)NC3=O)C4=O)C2=O)cn1 (stereo not drawn) [Compound 104, 3-(5-(3-(6-methylpyridin-3-yl)-2-oxoimidazolidin-1-yl)-1-oxoisoindolin-2-yl)piperidine-2,6-dione] | ≤ 0.1 µM | 100 to 1000 nM | 100 to 1000 nM | 100 to 1000 nM | 100 to 1000 nM | 100 to 1000 nM | 100 to 1000 nM
3 | O=C1CCC(N2Cc3cc(N4CCN(c5ccc(C(F)F)nc5)C4=O)ccc3C2=O)C(=O)N1 (stereo not drawn) [Compound 124, 3-(5-(3-(6-(difluoromethyl)pyridin-3-yl)-2-oxoimidazolidin-1-yl)-1-oxoisoindolin-2-yl)piperidine-2,6-dione] | ≤ 0.1 µM | 100 to 1000 nM | 100 to 1000 nM | ≤ 100 nM | 100 to 1000 nM | 100 to 1000 nM | ≤ 100 nM
4 | Cc1ccc(N2CCN(c3ccc4c(c3)CN(C3CCC(=O)NC3=O)C4=O)C2=O)cc1 (stereo not drawn) [Compound 111, 3-(1-oxo-5-(2-oxo-3-(p-tolyl)imidazolidin-1-yl)isoindolin-2-yl) piperidine-2,6-dione] | ≤ 0.1 µM | 100 to 1000 nM | ≤ 100 nM | ≤ 100 nM | 100 to 1000 nM | 100 to 1000 nM | 100 to 1000 nM
5 | CO[C@@H](C)c1cccc(N2CCN(c3ccc4c(c3)CN(C3CCC(=O)NC3=O)C4=O)C2=O)c1 (stereo partly drawn) [Compound 139, 3-(5-(3-(3-((S)-1-methoxyethyl)phenyl)-2-oxoimidazolidin-1-yl)-1-oxoisoindolin-2-yl)piperidine-2,6-dione] | ≤ 0.1 µM | 100 to 1000 nM |  |  |  |  | 
6 | O=C1CCC(N2Cc3cc(N4CCN(c5ccc(C(F)(F)F)nc5)C4=O)ccc3C2=O)C(=O)N1 (stereo not drawn) [Compound 126, 3-(1-oxo-5-(2-oxo-3-(6-(trifluoromethyl)pyridin-3-yl)imidazolidin-1-yl)isoindolin-2-yl)piperidine-2,6-dione] | ≤ 0.1 µM | 100 to 1000 nM | 100 to 1000 nM | ≤ 100 nM | 100 to 1000 nM | 100 to 1000 nM | 100 to 1000 nM
7 | CC1(c2ccc(N3CCN(c4ccc5c(c4)CN(C4CCC(=O)NC4=O)C5=O)C3=O)cc2)CC1 (stereo not drawn) [Compound 135, 3-(5-(3-(4-(1-methylcyclopropyl)phenyl)-2-oxoimidazolidin-1-yl)-1-oxoisoindolin-2-yl)piperidine-2,6-dione] | ≤ 0.1 µM | > 1000 nM |  |  |  |  | 
8 | O=C1CCC(N2Cc3cc(N4CCN(C5CCOC5)C4=O)ccc3C2=O)C(=O)N1 (stereo not drawn) [Compound 162, 3-(1-oxo-5-(2-oxo-3-(tetrahydrofuran-3-yl)imidazolidin-1-yl)isoindolin-2-yl)piperidine-2,6-dione] | 0.1 to 1 µM | 100 to 1000 nM |  |  |  |  | 
9 | COCc1ccc(N2C(=O)N(c3ccc4c(c3)CN(C3CCC(=O)NC3=O)C4=O)C[C@H]2C)cc1 (stereo partly drawn) [Compound 134, 3-(5-((R)-3-(4-(methoxymethyl)phenyl)-4-methyl-2-oxoimidazolidin-1-yl)-1-oxoisoindolin-2-yl)piperidine-2,6-dione] | ≤ 0.1 µM | 100 to 1000 nM |  |  |  |  | 
10 | O=C1CCC(N2Cc3cc(N4C[C@@H](C(F)(F)F)N(c5ccccc5)C4=O)ccc3C2=O)C(=O)N1 (stereo partly drawn) [Compound 106, 3-(1-oxo-5-((S)-2-oxo-3-phenyl-4-(trifluoromethyl)imidazolidin-1-yl)isoindolin-2-yl)piperidine-2,6-dione] | 0.1 to 1 µM | 100 to 1000 nM |  |  |  |  | 
11 | O=C1CCC(N2Cc3cc(N4CCN(c5ccc(C6COC6)cc5)C4=O)ccc3C2=O)C(=O)N1 (stereo not drawn) [Compound 146, 3-(5-(3-(4-(oxetan-3-yl)phenyl)-2-oxoimidazolidin-1-yl)-1-oxoisoindolin-2-yl)piperidine-2,6-dione] | ≤ 0.1 µM | 100 to 1000 nM |  |  |  |  | 
12 | O=C1CCC(N2Cc3cc(N4CCN(c5cccc(Cl)c5)C4=O)ccc3C2=O)C(=O)N1 (stereo not drawn) [Compound 118, 3-(5-(3-(3-chlorophenyl)-2-oxoimidazolidin-1-yl)-1-oxoisoindolin-2-yl)piperidine-2,6-dione] | ≤ 0.1 µM | 100 to 1000 nM |  |  |  |  | 
13 | Cc1ccc(N2C(=O)N(c3ccc4c(c3)CN(C3CCC(=O)NC3=O)C4=O)C[C@H]2C)nc1 (stereo partly drawn) [Compound 156, 3-(5-((R)-4-methyl-3-(5-methylpyridin-2-yl)-2-oxoimidazolidin-1-yl)-1-oxoisoindolin-2-yl)piperidine-2,6-dione] | 0.1 to 1 µM | 100 to 1000 nM |  |  |  |  | 
14 | O=C1CCC(N2Cc3cc(N4CCN(C5CCC5)C4=O)ccc3C2=O)C(=O)N1 (stereo not drawn) [Compound 159, 3-(5-(3-cyclobutyl-2-oxoimidazolidin-1-yl)-1-oxoisoindolin-2-yl)piperidine-2,6-dione] | 0.1 to 1 µM | > 1000 nM |  |  |  |  | 
15 | Cc1ccc(N2C(=O)N(c3ccc4c(c3)CN(C3CCC(=O)NC3=O)C4=O)C[C@H]2C)cc1 (stereo partly drawn) [Compound 130, 3-(5-((R)-4-methyl-2-oxo-3-(p-tolyl)imidazolidin-1-yl)-1-oxoisoindolin-2-yl) piperidine-2,6-dione] | ≤ 0.1 µM | 100 to 1000 nM |  |  |  |  | 
16 | CN1CCN(c2cccc(N3CCN(c4ccc5c(c4)CN(C4CCC(=O)NC4=O)C5=O)C3=O)c2)CC1 (stereo not drawn) [Compound 165, 3-(5-(3-(3-(4-methylpiperazin-1-yl)phenyl)-2-oxoimidazolidin-1-yl)-1-oxoisoindolin-2-yl)piperidine-2,6-dione] | 0.1 to 1 µM | 100 to 1000 nM |  |  |  |  | 
17 | COC[C@H]1CN(c2ccc3c(c2)CN(C2CCC(=O)NC2=O)C3=O)C(=O)N1c1ccc(C)cc1 (stereo partly drawn) [Compound 157, 3-(5-((R)-4-(methoxymethyl)-2-oxo-3-(p-tolyl)imidazolidin-1-yl)-1-oxoisoindolin-2-yl)piperidine-2,6-dione] | 0.1 to 1 µM | 100 to 1000 nM |  |  |  |  | 
18 | CC(C)C(=O)c1ccc(N2CCN(c3ccc4c(c3)CN(C3CCC(=O)NC3=O)C4=O)C2=O)cc1 (stereo not drawn) [Compound 181, 3-(5-(3-(4-isobutyrylphenyl)-2-oxoimidazolidin-1-yl)-1-oxoisoindolin-2-yl)piperidine-2,6-dione] | > 1 µM | ≤ 100 nM |  |  |  |  | 
19 | O=C1CCC(N2Cc3cc(N4CCN(c5cccc(C(F)(F)F)c5)C4=O)ccc3C2=O)C(=O)N1 (stereo not drawn) [Compound 116, 3-(1-oxo-5-(2-oxo-3-(3-(trifluoromethyl)phenyl)imidazolidin-1-yl)isoindolin-2-yl)piperidine-2,6-dione] | ≤ 0.1 µM | 100 to 1000 nM |  |  |  |  | 
20 | CN1CC(c2ccc(N3CCN(c4ccc5c(c4)CN(C4CCC(=O)NC4=O)C5=O)C3=O)cc2)C1 (stereo not drawn) [Compound 176, 3-(5-(3-(4-(1-methylazetidin-3-yl)phenyl)-2-oxoimidazolidin-1-yl)-1-oxoisoindolin-2-yl)piperidine-2,6-dione] | > 1 µM | ≤ 100 nM |  |  |  |  | 
21 | Cc1ccc(N2C(=O)N(c3ccc4c(c3)CN(C3CCC(=O)NC3=O)C4=O)C[C@H]2C)cn1 (stereo partly drawn) [Compound 151, 3-(5-((R)-4-methyl-3-(6-methylpyridin-3-yl)-2-oxoimidazolidin-1-yl)-1-oxoisoindolin-2-yl)piperidine-2,6-dione] | ≤ 0.1 µM | 100 to 1000 nM |  |  |  |  | 
22 | O=C1CCC(N2Cc3cc(N4CC5(CC5)N(c5ccccc5)C4=O)ccc3C2=O)C(=O)N1 (stereo not drawn) [Compound 152, 3-(1-oxo-5-(5-oxo-4-phenyl-4,6-diazaspiro[2.4]heptan-6-yl)isoindolin-2-yl)piperidine-2,6-dione] | ≤ 0.1 µM | 100 to 1000 nM |  |  |  |  | 
